Source: patent US8859580B2 (Boehringer Ingelheim International GmbH, priority 2007, dated 2014)

target: T1, 11β-HSD1 (Homo sapiens, UniProt P28845); experiment: In vitro inhibition of 11β-HSD1, HTRF detection of cortisol generated from cortisone by human liver microsomes; type: biochemical; settings: 11β-HSD IC50 (nM), 1 hour at 37° C., pH 6.0, NADPH 200 μM, cortisone 80 nM, inhibition relative to carbenoxolone signal
T1 construct: detecting cortisol generated from cortisterone by human liver microsomes; from tissue; host or cells: human liver microsomes
Summary of the method: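 Inhibition expressed against the carbenoxolone signal and fitted to IC50 curves. Readout: HTRF competition between microsomal cortisol and XL665-labelled cortisol for Eu-cryptate anti-cortisol antibody (typically 2 h), with emission ratio 665/615 calibrated to cortisol concentration.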

T1 sequence (P28845 whole entry): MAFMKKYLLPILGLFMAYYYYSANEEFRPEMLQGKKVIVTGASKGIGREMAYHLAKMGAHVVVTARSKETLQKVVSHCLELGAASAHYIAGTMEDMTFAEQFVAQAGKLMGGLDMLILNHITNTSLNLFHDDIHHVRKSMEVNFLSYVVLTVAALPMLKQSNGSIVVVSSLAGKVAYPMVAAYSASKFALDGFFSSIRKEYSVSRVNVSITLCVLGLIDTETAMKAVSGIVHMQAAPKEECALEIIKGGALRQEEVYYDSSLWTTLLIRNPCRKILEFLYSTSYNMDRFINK

SMILES	IC50 [nM]
CC12CCN(C(=O)c3ccc4nc[nH]c4c3)C(Cc3cc(C(=O)O)ccc31)C2(C)C (stereo not shown) [Example 154, 3-(3H-Benzoimidazole-5-carbonyl)-6,11,11-trimethyl-1,2,3,4,5,6-hexahydro-2,6-methano-benzo[d]azocine-9-carboxylic acid]	1660
C[C@@H]1[C@H]2Cc3ccc(C(=O)N(C)C)cc3[C@]1(C)CCN2C(=O)c1ccc2nc[nH]c2c1 [Example 155, (2R,6R,11S)-3-(3H-Benzoimidazole-5-carbonyl)-6,11-dimethyl-1,2,3,4,5,6-hexahydro-2,6-methano-benzo[d]azocine-8-carboxylic acid dimethylamide]	354
CNC(=O)c1ccc2c(c1)[C@]1(C)CCN(C(=O)c3ccc4nc[nH]c4c3)[C@H](C2)[C@H]1C [Example 156, (2R,6R,11S)-3-(3H-Benzoimidazole-5-carbonyl)-6,11-dimethyl-1,2,3,4,5,6-hexahydro-2,6-methano-benzo[d]azocine-8 carboxylic acid methylamide]	340
C[C@@H]1[C@H]2Cc3ccc(C(N)=O)cc3[C@]1(C)CCN2C(=O)c1ccc2nc[nH]c2c1 [Example 157, (2R,6R,11S)-3-(3H-Benzoimidazole-5-carbonyl)-6,11-dimethyl-1,2,3,4,5,6-hexahydro-2,6-methano-benzo[d]azocine-8-carboxylic acid amide]	335
CC1(C)[C@H]2Cc3c(C(N)=O)cccc3[C@]1(C)CCN2C(=O)c1ccc2nc[nH]c2c1 [Example 160, (2R,6S)-3-(3H-Benzoimidazole-5-carbonyl)-6,11,11-trimethyl-1,2,3,4,5,6-hexahydro-2,6-methano-benzo[d]azocine-10-carboxylic acid amide]	2180
CN(C)C(=O)c1ccc2c(c1)CC1N(C(=O)c3ccc4nc[nH]c4c3)CCC2(C)C1(C)C (stereo not shown) [Example 161, 3-(3H-Benzoimidazole-5-carbonyl)-6,11,11-trimethyl-1,2,3,4,5,6-hexahydro-2,6-methano-benzo[d]azocine-9-carboxylic acid dimethylamide]	1750
CNC(=O)c1ccc2c(c1)CC1N(C(=O)c3ccc4nc[nH]c4c3)CCC2(C)C1(C)C (stereo not shown) [Example 162, 3-(3H-Benzoimidazole-5-carbonyl)-6,11,11-trimethyl-1,2,3,4,5,6-hexahydro-2,6-methano-benzo[d]azocine-9-carboxylic acid methylamide]	1090
CC12CCN(C(=O)c3ccc4nc[nH]c4c3)C(Cc3cc(C(N)=O)ccc31)C2(C)C (stereo not shown) [Example 163, 3-(3H-Benzoimidazole-5-carbonyl)-6,11,11-trimethyl-1,2,3,4,5,6-hexahydro-2,6-methano-benzo[d]azocine-9-carboxylic acid amide]	249
CCCN(C)C(=O)c1ccc(C(=O)N2CC[C@@]3(C)c4cccc(O)c4C[C@@H]2C3(C)C)cc1 [Example 167, 4-[(2R,6S)-10-Hydroxy-6,11,11-trimethyl-1,2,5,6-tetrahydro-4H-2,6-methano-benzo[d]azocine-3-carbonyl]-N-methyl-N-propyl-benzamide]	291
CCN(CC)C(=O)c1ccc(C(=O)N2CC[C@@]3(C)c4cccc(O)c4C[C@@H]2C3(C)C)cc1 [Example 168, N,N-Diethyl-4-[(2R,6S)-10-hydroxy-6,11,11-trimethyl-1,2,5,6-tetrahydro-4H-2,6-methano-benzo[d]azocine-3-carbonyl]-benzamide]	561
CC1(C)[C@H]2Cc3c(O)cccc3[C@]1(C)CCN2C(=O)c1ccc(C(=O)N2CCCCC2)cc1 [Example 169, [(2R,6S)-10-Hydroxy-6,11,11-trimethyl-1,2,5,6-tetrahydro-4H-2,6-methano-benzo[d]azocin-3-yl]-[4-(piperidine-1-carbonyl)-phenyl]-methanone]	950
CN(Cc1ccccc1)C(=O)c1ccc(C(=O)N2CC[C@@]3(C)c4cccc(O)c4C[C@@H]2C3(C)C)cc1 [Example 170, N-Benzyl-4-[(2R,6S)-10-hydroxy-6,11,11-trimethyl-1,2,5,6-tetrahydro-4H-2,6-methano-benzo[d]azocine-3-carbonyl]-N-methyl-benzamide]	626
CCCNC(=O)c1ccc(C(=O)N2CC[C@@]3(C)c4cccc(O)c4C[C@@H]2C3(C)C)cc1 [Example 171, 4-[(2R,6S)-10-Hydroxy-6,11,11-trimethyl-1,2,5,6-tetrahydro-4H-2,6-methano-benzo[d]azocine-3-carbonyl]-N-propyl-benzamide]	1650
C[C@@H]1[C@H]2Cc3ccc(CN)cc3[C@]1(C)CCN2C(=O)c1ccc2nc[nH]c2c1 [Example 172, [(2R,6R,11S)-8-Aminomethyl-6,11-dimethyl-1,2,5,6-tetrahydro-4H-2,6-methano-benzo[d]azocin-3-yl]-(3H-benzoimidazol-5-yl)-methanone]	1720
CC12CCN(C(=O)c3ccc4nc[nH]c4c3)C(Cc3cc(CN)ccc31)C2(C)C (stereo not shown) [Example 173, (9-Aminomethyl-6,11,11-trimethyl-1,2,5,6-tetrahydro-4H-2,6-methano-benzo[d]azocin-3-yl)-(3H-benzoimidazol-5-yl)-methanone]	1690
CC12CCN(C(=O)c3ccc4ncsc4c3)C(Cc3ccccc31)C2 (stereo not shown) [Example 174, Benzothiazol-6-yl-(6-methyl-1,2,5,6-tetrahydro-4H-2,6-methano-benzo[d]azocin-3-yl)-methanone]	406
CC12CCN(C(=O)c3ccc4[nH]cnc4c3)C(Cc3cc(/C(N)=N/O)ccc31)C2(C)C (stereo not shown) [Example 175, 3-(1H-Benzoimidazole-5-carbonyl)-N-hydroxy-6,11,11-trimethyl-1,2,3,4,5,6-hexahydro-2,6-methano-benzo[d]azocine-9-carboxamidine]	344
Cc1nc(-c2ccc3c(c2)CC2N(C(=O)c4ccc5[nH]cnc5c4)CCC3(C)C2(C)C)no1 (stereo not shown) [Example 176, (1H-Benzoimidazol-5-yl)-[6,11,11-trimethyl-9-(5-methyl-[1,2,4]oxadiazol-3-yl)-1,2,5,6-tetrahydro-4H-2,6-methano-benzo[d]azocin-3-yl]-methanone]	603
N#CC12CCN(C(=O)c3ccc4ncsc4c3)C(Cc3ccc(O)cc31)C2 (stereo not shown) [Example 177, 3-(Benzothiazole-6-carbonyl)-8-hydroxy-2,3,4,5-tetrahydro-1H-2,6-methano-benzo[d]azocine-6-carbonitrile]	8910
CC(=O)NCc1ccc2c(c1)CC1N(C(=O)c3ccc4nc[nH]c4c3)CCC2(C)C1(C)C (stereo not shown) [Example 178, N-[3-(3H-Benzoimidazole-5-carbonyl)-6,11,11-trimethyl-1,2,3,4,5,6-hexahydro-2,6-methano-benzo[d]azocin-9-ylmethyl]-acetamide]	159
CC(=O)Nc1ccc2c(c1)CC1N(C(=O)c3ccc4nc[nH]c4c3)CCC2(C)C1(C)C (stereo not shown) [Example 179, N-[3-(3H-Benzoimidazole-5-carbonyl)-6,11,11-trimethyl-1,2,3,4,5,6-hexahydro-2,6-methano-benzo[d]azocin-9-yl]-acetamide]	199
Cc1occc1C(=O)N1CC[C@@]2(C)c3cccc(O)c3C[C@@H]1C2(C)C [Example 180, [(2R,6S)-10-Hydroxy-6,11,11-trimethyl-1,2,5,6-tetrahydro-4H-2,6-methano-benzo[d]azocin-3-yl]-(2-methyl-furan-3-yl)-methanone]	1320
